ChEMBL document CHEMBL3822370, “Identification and Development of 2,3-Dihydropyrrolo[1,2-a]quinazolin-5(1H)-one Inhibitors Targeting Bromodomains within the Switch/Sucrose Nonfermenting Complex” (J Med Chem, 2016)
Calls of active or inactive are those of the source. No cut-off for these calls is given here.

Columns and labels:
[1] = biological target: T1, SWI/SNF-related matrix-associated actin-dependent regulator of chromatin subfamily A member 4 (Homo sapiens, UniProt P51532); assay: Inhibition of His6-tagged human recombinant SMARCA4 bromodomain expressed in Escherichia coli BL21(DE3)-R3-pRARE2 cells after 30 mins using biotinylated ligand by Alpha screen displacement assay
T1 sequence (P51532 whole entry): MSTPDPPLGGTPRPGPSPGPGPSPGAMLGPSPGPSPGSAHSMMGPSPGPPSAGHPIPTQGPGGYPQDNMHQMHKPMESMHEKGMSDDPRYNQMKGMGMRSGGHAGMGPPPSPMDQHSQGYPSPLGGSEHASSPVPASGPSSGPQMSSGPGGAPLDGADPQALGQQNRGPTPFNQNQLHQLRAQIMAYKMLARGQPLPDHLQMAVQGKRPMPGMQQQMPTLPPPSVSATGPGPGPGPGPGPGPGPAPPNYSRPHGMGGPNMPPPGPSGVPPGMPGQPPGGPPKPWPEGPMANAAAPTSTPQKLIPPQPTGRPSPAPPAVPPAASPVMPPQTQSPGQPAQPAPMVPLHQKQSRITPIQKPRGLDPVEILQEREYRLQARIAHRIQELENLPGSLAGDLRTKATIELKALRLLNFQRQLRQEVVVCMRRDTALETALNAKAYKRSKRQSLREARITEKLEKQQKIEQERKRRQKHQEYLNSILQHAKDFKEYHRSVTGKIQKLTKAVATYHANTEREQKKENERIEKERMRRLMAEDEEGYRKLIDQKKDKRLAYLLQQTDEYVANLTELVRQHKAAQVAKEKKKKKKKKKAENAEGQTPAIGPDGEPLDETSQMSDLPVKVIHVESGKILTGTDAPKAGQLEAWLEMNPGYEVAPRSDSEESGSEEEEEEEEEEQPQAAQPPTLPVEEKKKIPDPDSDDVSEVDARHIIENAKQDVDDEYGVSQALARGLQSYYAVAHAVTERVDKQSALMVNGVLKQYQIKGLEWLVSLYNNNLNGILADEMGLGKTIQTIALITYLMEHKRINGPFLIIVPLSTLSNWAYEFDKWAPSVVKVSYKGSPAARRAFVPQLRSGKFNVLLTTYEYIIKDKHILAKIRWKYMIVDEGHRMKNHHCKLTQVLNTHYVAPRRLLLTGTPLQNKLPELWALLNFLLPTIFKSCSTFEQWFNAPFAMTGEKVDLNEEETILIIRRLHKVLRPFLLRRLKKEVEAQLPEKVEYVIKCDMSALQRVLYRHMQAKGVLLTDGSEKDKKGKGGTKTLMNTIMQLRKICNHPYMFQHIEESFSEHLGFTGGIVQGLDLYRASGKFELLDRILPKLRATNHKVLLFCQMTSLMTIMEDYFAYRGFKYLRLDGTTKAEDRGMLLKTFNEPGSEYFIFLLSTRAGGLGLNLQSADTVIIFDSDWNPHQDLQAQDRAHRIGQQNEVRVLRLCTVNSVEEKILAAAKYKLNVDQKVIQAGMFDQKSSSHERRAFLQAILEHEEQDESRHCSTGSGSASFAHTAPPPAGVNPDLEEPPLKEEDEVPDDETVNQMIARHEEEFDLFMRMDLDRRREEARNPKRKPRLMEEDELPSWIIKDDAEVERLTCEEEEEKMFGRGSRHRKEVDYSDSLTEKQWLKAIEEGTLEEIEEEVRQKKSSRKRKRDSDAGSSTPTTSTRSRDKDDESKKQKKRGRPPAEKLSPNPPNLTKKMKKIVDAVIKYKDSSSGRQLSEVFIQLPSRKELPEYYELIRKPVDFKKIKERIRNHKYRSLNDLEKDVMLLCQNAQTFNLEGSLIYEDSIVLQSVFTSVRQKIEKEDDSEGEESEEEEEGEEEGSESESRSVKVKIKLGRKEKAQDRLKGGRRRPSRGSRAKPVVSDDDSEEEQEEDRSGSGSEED

[2] = biological target: T2, Protein polybromo-1 (Homo sapiens, UniProt Q86U86)
T2 sequence (Q86U86 whole entry, canonical isoform): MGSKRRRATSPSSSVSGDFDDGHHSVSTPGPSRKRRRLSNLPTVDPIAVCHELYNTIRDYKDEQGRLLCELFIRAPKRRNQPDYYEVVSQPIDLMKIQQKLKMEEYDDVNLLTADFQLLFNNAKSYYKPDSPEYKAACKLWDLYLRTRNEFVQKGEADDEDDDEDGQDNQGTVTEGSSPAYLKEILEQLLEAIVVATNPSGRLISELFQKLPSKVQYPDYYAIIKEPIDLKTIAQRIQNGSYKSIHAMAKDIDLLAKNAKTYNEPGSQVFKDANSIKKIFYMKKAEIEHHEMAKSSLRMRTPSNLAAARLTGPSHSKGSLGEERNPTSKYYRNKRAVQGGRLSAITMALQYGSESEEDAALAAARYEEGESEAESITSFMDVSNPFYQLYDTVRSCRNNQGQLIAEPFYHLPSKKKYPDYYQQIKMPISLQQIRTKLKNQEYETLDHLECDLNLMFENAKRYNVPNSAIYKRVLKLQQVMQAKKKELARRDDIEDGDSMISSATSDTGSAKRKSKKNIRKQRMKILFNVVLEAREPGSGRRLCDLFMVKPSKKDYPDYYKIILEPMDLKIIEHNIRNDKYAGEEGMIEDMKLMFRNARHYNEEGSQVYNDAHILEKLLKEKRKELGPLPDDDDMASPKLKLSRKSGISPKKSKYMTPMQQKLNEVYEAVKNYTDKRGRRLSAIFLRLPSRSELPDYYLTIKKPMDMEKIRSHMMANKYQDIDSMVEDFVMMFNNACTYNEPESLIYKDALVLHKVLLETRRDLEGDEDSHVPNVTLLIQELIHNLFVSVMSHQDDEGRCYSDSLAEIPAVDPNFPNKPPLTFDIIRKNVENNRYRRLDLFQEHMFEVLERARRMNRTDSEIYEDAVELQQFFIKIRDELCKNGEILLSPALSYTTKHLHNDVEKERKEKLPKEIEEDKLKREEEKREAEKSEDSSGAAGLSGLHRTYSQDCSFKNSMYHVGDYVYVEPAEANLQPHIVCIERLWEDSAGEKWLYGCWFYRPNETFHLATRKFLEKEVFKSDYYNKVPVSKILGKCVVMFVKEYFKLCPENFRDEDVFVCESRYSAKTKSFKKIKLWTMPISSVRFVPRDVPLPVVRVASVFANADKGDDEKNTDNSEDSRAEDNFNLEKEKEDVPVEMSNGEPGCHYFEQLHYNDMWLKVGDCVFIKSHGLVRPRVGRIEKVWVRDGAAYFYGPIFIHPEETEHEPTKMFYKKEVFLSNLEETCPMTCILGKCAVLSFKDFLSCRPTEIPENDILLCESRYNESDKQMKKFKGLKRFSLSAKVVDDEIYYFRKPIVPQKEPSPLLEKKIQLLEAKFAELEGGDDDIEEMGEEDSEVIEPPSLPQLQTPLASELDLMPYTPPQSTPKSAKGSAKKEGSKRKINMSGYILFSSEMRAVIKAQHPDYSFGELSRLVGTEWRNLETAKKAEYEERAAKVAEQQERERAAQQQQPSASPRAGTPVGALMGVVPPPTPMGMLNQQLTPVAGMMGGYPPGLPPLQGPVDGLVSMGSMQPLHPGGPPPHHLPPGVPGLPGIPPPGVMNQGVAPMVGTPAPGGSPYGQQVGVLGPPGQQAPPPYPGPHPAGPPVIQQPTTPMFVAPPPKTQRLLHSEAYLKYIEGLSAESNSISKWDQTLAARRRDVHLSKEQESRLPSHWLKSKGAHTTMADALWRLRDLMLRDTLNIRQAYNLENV
Description: Binding affinity to His6-tagged human recombinant PB1 bromodomain isoform 5 expressed in Escherichia coli BL21(DE3)-R3-pRARE2 cells assessed as change in melting temperature at 10 uM by SyproOrange dye based DSF thermal shift assay

[3] = biological target: T2, Protein polybromo-1; assay: Binding affinity to His6-tagged human recombinant PB1 bromodomain isoform 5 expressed in Escherichia coli BL21(DE3)-R3-pRARE2 cells by VP-ITC microcalorimetry
[4] = biological target: T2, Protein polybromo-1; remark: listed apart in the source
Description: Binding affinity to His6-tagged human recombinant PB1 bromodomain isoform 2 expressed in Escherichia coli BL21(DE3)-R3-pRARE2 cells assessed as change in melting temperature at 10 uM by SyproOrange dye based DSF thermal shift assay

[5] = biological target: T2, Protein polybromo-1; remark: listed apart in the source
Description: Binding affinity to His6-tagged human recombinant PB1 bromodomain 4 expressed in Escherichia coli BL21(DE3)-R3-pRARE2 cells assessed as change in melting temperature at 10 uM by SyproOrange dye based DSF thermal shift assay

[6] = biological target: SWI/SNF-related matrix-associated actin-dependent regulator of chromatin subfamily A member 2 (Homo sapiens) (UniProt P51531); assay: Binding affinity to His6-tagged human recombinant SMARCA2A bromodomain expressed in Escherichia coli BL21(DE3)-R3-pRARE2 cells assessed as change in melting temperature at 10 uM by SyproOrange dye based DSF thermal shift assay
Chain of SWI/SNF-related matrix-associated actin-dependent regulator of chromatin subfamily A member 2 (Homo sapiens) (P51531 whole entry, the tested form may be a part): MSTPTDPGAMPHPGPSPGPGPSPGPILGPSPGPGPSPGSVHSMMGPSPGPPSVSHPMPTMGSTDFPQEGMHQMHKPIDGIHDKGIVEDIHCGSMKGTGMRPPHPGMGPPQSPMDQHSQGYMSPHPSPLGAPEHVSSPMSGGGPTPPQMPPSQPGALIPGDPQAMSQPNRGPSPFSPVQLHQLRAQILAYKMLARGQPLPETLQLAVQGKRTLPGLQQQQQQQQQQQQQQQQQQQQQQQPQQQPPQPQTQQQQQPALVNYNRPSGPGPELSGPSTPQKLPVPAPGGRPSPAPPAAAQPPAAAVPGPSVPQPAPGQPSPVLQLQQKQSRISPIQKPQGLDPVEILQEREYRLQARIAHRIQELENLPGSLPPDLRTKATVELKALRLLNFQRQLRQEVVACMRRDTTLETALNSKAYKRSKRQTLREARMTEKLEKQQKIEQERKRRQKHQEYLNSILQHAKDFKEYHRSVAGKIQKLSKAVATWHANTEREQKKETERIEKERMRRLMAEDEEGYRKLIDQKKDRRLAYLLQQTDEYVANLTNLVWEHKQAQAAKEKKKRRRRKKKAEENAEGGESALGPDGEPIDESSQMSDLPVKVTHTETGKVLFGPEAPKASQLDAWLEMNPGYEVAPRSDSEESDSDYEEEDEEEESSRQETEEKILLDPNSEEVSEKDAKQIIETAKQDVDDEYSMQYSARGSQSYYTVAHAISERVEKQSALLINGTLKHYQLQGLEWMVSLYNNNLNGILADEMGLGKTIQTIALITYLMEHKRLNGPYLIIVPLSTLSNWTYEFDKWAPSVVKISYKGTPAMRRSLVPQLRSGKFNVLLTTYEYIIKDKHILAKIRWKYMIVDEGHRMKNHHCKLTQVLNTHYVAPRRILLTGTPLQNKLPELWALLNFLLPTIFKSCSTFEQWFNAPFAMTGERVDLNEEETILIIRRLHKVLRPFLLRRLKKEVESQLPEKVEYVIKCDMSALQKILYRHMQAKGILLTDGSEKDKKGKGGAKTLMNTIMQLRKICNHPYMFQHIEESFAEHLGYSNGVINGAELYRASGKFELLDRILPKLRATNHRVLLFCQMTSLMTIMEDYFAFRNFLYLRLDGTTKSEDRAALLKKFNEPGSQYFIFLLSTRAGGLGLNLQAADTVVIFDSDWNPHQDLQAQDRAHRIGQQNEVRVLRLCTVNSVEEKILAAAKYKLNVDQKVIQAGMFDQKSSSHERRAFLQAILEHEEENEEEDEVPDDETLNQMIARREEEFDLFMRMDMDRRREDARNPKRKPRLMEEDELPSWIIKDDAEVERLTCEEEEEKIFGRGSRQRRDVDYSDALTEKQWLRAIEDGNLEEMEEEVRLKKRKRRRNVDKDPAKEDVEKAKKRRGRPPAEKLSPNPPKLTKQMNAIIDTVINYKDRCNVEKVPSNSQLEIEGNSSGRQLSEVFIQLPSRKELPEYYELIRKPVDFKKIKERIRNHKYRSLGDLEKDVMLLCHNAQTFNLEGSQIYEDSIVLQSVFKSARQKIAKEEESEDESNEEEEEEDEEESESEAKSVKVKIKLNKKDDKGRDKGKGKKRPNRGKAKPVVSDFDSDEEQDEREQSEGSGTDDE

[7] = biological target: T1, SWI/SNF-related matrix-associated actin-dependent regulator of chromatin subfamily A member 4; assay: Binding affinity to His6-tagged human recombinant SMARCA4 bromodomain expressed in Escherichia coli BL21(DE3)-R3-pRARE2 cells assessed as change in melting temperature at 10 uM by SyproOrange dye based DSF thermal shift assay
[8] = biological target: T2, Protein polybromo-1; remark: listed apart in the source
Description: Binding affinity to His6-tagged human recombinant PB1 bromodomain isoform 3 expressed in Escherichia coli BL21(DE3)-R3-pRARE2 cells assessed as change in melting temperature at 10 uM by SyproOrange dye based DSF thermal shift assay

[9] = biological target: SWI/SNF-related matrix-associated actin-dependent regulator of chromatin subfamily A member 2 (Homo sapiens) (UniProt P51531); assay: Binding affinity to His6-tagged human recombinant SMARCA2B bromodomain expressed in Escherichia coli BL21(DE3)-R3-pRARE2 cells assessed as change in melting temperature at 10 uM by SyproOrange dye based DSF thermal shift assay
[10] = biological target: Bromodomain-containing protein 4 (Homo sapiens) (UniProt O60885); assay: Binding affinity to His6-tagged human recombinant BRD4 bromodomain 1 expressed in Escherichia coli BL21(DE3)-R3-pRARE2 cells assessed as change in melting temperature at 10 uM by SyproOrange dye based DSF thermal shift assay
[11] = biological target: SWI/SNF-related matrix-associated actin-dependent regulator of chromatin subfamily A member 2 (Homo sapiens) (UniProt P51531); assay: Inhibition of GFP-fused N-terminal full length human recombinant Wild type SMARCA2 transfected in human U2OS cells assessed as displacement of SMARCA2 from chromatin by measuring FRAP recovery time at 1 to 5 uM by laser scanning inverted microscopy relative to control; type: cell-based
[12] = biological target: T3, E3 ubiquitin-protein ligase TRIM33 (Homo sapiens) (UniProt Q9UPN9); assay: Binding affinity to His6-tagged human recombinant TRIM33B bromodomain expressed in Escherichia coli BL21(DE3)-R3-pRARE2 cells assessed as change in melting temperature at 10 uM by SyproOrange dye based DSF thermal shift assay
T3 sequence (whole entry): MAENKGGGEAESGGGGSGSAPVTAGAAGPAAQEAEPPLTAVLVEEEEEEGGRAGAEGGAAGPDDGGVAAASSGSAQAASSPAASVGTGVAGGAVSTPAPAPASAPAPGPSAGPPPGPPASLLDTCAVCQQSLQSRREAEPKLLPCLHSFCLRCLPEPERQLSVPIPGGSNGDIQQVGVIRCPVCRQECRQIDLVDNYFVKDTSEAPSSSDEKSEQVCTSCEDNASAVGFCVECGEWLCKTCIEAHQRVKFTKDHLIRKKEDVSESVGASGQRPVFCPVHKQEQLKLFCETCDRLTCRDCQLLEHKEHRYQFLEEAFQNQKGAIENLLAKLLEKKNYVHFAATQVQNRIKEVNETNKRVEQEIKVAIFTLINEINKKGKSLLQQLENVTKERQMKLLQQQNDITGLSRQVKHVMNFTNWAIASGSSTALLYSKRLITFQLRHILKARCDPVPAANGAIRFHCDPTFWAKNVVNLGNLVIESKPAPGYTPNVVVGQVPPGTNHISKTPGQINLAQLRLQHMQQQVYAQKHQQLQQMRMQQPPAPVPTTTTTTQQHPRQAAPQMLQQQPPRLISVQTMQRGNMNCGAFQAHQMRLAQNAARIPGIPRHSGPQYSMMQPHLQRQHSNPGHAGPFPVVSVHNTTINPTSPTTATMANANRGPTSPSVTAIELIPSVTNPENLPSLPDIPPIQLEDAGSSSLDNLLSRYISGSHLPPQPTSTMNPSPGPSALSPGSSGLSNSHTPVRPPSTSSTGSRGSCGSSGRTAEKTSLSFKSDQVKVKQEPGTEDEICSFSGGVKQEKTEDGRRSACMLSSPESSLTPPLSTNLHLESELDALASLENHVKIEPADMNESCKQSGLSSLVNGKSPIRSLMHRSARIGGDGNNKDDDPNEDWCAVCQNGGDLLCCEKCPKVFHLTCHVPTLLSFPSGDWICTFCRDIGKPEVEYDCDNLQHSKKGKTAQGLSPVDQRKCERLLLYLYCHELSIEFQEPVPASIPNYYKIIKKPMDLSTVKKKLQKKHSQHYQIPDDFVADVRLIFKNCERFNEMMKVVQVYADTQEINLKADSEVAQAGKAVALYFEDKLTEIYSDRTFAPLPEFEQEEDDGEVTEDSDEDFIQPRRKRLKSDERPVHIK

[13] = biological target: Histone acetyltransferase KAT2B (Homo sapiens) (UniProt Q92831); assay: Binding affinity to His6-tagged human recombinant PCAF bromodomain expressed in Escherichia coli BL21(DE3)-R3-pRARE2 cells assessed as change in melting temperature at 10 uM by SyproOrange dye based DSF thermal shift assay
[14] = biological target: CREB-binding protein (Homo sapiens) (UniProt Q92793); assay: Binding affinity to His6-tagged human recombinant CREBBP bromodomain expressed in Escherichia coli BL21(DE3)-R3-pRARE2 cells assessed as change in melting temperature at 10 uM by SyproOrange dye based DSF thermal shift assay
[15] = biological target: T1, SWI/SNF-related matrix-associated actin-dependent regulator of chromatin subfamily A member 4; assay: biochemical
Description: Binding affinity to His6-tagged human recombinant SMARCA4 bromodomain expressed in Escherichia coli BL21(DE3)-R3-pRARE2 cells by VP-ITC microcalorimetry

[16] = Solubility of the compound in DMSO; type: physicochemical

SMILES | ΔTm [2] [°C] | ΔTm [4] [°C] | ΔTm [5] [°C] | ΔTm [6] [°C] | ΔTm [7] [°C] | ΔTm [8] [°C] | ΔTm [9] [°C] | other results
CN1CCN(/C=C2\CCn3c2nc(=O)c2ccccc23)CC1 | 3.5 | – | – | – | – | – | – | IC50 [1]: 7.3 µM
O=c1nc2n(c3ccccc13)CC/C2=C\N1CCOCC1 | 4.7 | – | – | – | – | – | – | –
CN(C)/C=C1\CCn2c1nc(=O)c1c(Cl)cccc12 | 8.4 | 2.2 | 0.4 | 4.4 | 3.6 | 1 | 2.7 | Kd [3]: 0.137 µM
Cc1cccc2c1c(=O)nc1n2CC/C1=C\N(C)C | 1.4 | – | – | – | – | – | – | –
CN(C)/C=C1\CCn2c1nc(=O)c1c(Br)cccc12 | 6.9 | – | – | – | – | – | – | –
CCN1CCN(/C=C2\CCn3c2nc(=O)c2ccccc23)CC1 | 4.3 | – | – | – | – | – | – | IC50 [1]: 6.9 µM
COc1cccc2c1c(=O)nc1n2CC/C1=C\N(C)C | -0.7 | – | – | – | – | – | – | –
CN(C)/C=C1\CCn2c1nc(=O)c1ccccc12 | 4.2 | – | – | – | – | – | – | IC50 [1]: 11 µM
CC(C)N(/C=C1\CCn2c1nc(=O)c1ccccc12)C(C)C | 1.1 | – | – | – | – | – | – | –
CN(C)/C=C1\CCn2c1nc(=O)c1c(F)cccc12 | 1.4 | – | – | – | – | – | – | –
O=c1nc2n(c3ccccc13)CC/C2=C\N1CCCCC1 | 5 | – | – | – | – | – | – | Kd [3]: 1.2 µM; IC50 [1]: 6.2 µM
CN1CCCN(/C=C2\CCn3c2nc(=O)c2ccccc23)CC1 | 2.5 | – | – | – | – | – | – | IC50 [1]: 22 µM
CC(C)(C)OC(=O)N1CCN(/C=C2\CCn3c2nc(=O)c2ccccc23)CC1 | 3.7 | – | – | – | – | – | – | –
CN1CCN(/C=C2\CCn3c2nc(=O)c2c(Cl)cccc23)CC1 | 10.2 | 4.3 | 1.1 | 6.6 | 5.4 | 1.3 | 4.2 | Activity [10]: inactive; K [3]: 8.09 ×10⁶ /M; inhibition [11]: Active; Activity [12]: inactive; Activity [13]: inactive; Activity [14]: inactive; Kd [15]: 0.417 µM; solubility [16]: soluble
O=c1nc2n(c3ccccc13)CC/C2=C\N1CCCC1 | 5.8 | – | – | – | – | – | – | Kd [3]: 2.3 µM; IC50 [1]: 9.6 µM
O=c1nc2n(c3cccc(Cl)c13)CC/C2=C\N1CCOCC1 | 7.4 | 1.9 | 0.3 | 2.8 | 2.7 | 0.4 | 1.7 | –
O=c1nc2n(c3cccc(Cl)c13)CC/C2=C\N1CCCC1 | 6.9 | 1.2 | 0.4 | 2.6 | 1.4 | 0.2 | 1.3 | –
O=c1nc2n(c3cccc(Cl)c13)CC/C2=C\N1CCCCC1 | 9.8 | 4.7 | 0.9 | 6.3 | 5.3 | 0.8 | 4.3 | Kd [3]: 0.127 µM; solubility [16]: soluble
CN(C)/C=C1\CCn2c1nc(=O)c1c(O)cccc12 | 3.4 | – | – | – | – | – | – | –
CN1CCC(/C=C2\CCn3c2nc(=O)c2c(Cl)cccc23)CC1 | 6 | 1.4 | 0.8 | 1.4 | 1.1 | 0.7 | 1 | –
CCN(/C=C1\CCn2c1nc(=O)c1ccccc12)CC | 4.3 | – | – | – | – | – | – | –
CCC(/C=C1\CCn2c1nc(=O)c1c(Cl)cccc12)CC | 10.2 | 7.1 | 2.7 | 3.5 | 2.9 | 3.1 | 2.5 | K [3]: 5.88 ×10⁶ /M
O=c1nc2n(c3cccc(Cl)c13)CC/C2=C\C1CCCCC1 | 6.6 | 2.7 | 0.7 | 2.5 | 2 | 0.4 | 1.6 | –
O=c1nc2n(c3ccccc13)CC/C2=C\c1ccoc1 | 3.7 | – | – | – | – | – | – | –
CCN(/C=C1\CCn2c1nc(=O)c1c(Cl)cccc12)CC | 7.3 | 2.9 | 0.6 | 3.6 | 2.8 | 0.2 | 2.5 | –
O=c1nc2n(c3cccc(Cl)c13)CC/C2=C\C1CCOCC1 | 8.2 | 3.4 | 1.2 | 3.4 | 2.8 | 1.6 | 2.3 | –
CCN1CCN(/C=C2\CCn3c2nc(=O)c2c(Cl)cccc23)CC1 | 9.2 | 4 | 0.9 | 4.8 | 5.6 | 1.4 | 4.1 | K [3]: 7.05 ×10⁶ /M; Kd [3]: 0.142 µM; solubility [16]: soluble
CCCN(/C=C1\CCn2c1nc(=O)c1ccccc12)CCC | 4.4 | – | – | – | – | – | – | –
